Patent publication US6403082B1, “Bacteriocins, transport and vector system and method of use thereof” (priority 1996, dated 2002)
Several values for one entry are separate records, joined by “and”; a condition that tells them apart may be missing. Equal values may be shown once. Marks after values point to notes of the source that are not given here. Ends that are not written are not given here.

Assays:
Assay in all cases: Spot test of partially purified bacteriocins on strains grown on agar
Carnobacteria = test system: Carnobacteria
Lactococcus = test system: Lactococcus
Enterococcus = test system: Enterococcus
Staphylococcus = test system: Staphylococcus
Pediococcus = test system: Pediococcus
Lactobacillus = test system: Lactobacillus
Leuconostoc = test system: Leuconostoc
Clostridia spores = format: cell-based, Clostridium
Streptococcus = test system: Streptococcus
G negative strains = format: cell-based
[1] = test system: Clostridia vegetative cells; format: cell-based, Clostridium
Bacillus spores = format: cell-based
Brochothrix = test system: Brochothrix
Listeria = test system: Listeria
[2] = test system: Bacillus vegetative cells; format: cell-based
[3] = 1AU (10 μl/spot of 100 AU/ml), listed as Mesent Y105
[4] = 8AU (10 μl/spot of 800 AU/ml), listed as Mesent Y105

## Mesen Y105: mesentericin Y105, an anti-Listeria bacteriocin from Leuconostoc mesenteroides (KYYGNGVHCTKSGCSVNWGEAASAGIHRLANGGNGFW; UniProt P38577 25-61, looked up)
Carnobacteria; 1AU (10 μl/spot of 100 AU/ml)
  Number of strains inhibited/Number of strains tested: 17/19^j
Carnobacteria; [3]
  Number of strains inhibited/Number of strains tested: 17/19
Carnobacteria; 8AU (10 μl/spot of 800 AU/ml)
  Number of strains inhibited/Number of strains tested: 19/19
Lactococcus; 1AU (10 μl/spot of 100 AU/ml)
  Number of strains inhibited/Number of strains tested: 0/8
Lactococcus; 8AU (10 μl/spot of 800 AU/ml)
  Number of strains inhibited/Number of strains tested: 1/8^n
Lactococcus; [4]
  Number of strains inhibited/Number of strains tested: 1/8
Enterococcus; 1AU (10 μl/spot of 100 AU/ml)
  Number of strains inhibited/Number of strains tested: 3/14^l
Enterococcus; [3]
  Number of strains inhibited/Number of strains tested: 3/14
Enterococcus; 8AU (10 μl/spot of 800 AU/ml)
  Number of strains inhibited/Number of strains tested: 9/14^l
Enterococcus; [4]
  Number of strains inhibited/Number of strains tested: 9/14
Staphylococcus; 1AU (10 μl/spot of 100 AU/ml)
  Number of strains inhibited/Number of strains tested: 1/7^cf
Staphylococcus; [3]
  Number of strains inhibited/Number of strains tested: 1/7
Staphylococcus; 8AU (10 μl/spot of 800 AU/ml)
  Number of strains inhibited/Number of strains tested: 7/7^cf
Staphylococcus; [4]
  Number of strains inhibited/Number of strains tested: 7/7
Pediococcus; 1AU (10 μl/spot of 100 AU/ml)
  Number of strains inhibited/Number of strains tested: 0/3
Pediococcus; 8AU (10 μl/spot of 800 AU/ml)
  Number of strains inhibited/Number of strains tested: 0/3
Lactobacillus; 1AU (10 μl/spot of 100 AU/ml)
  Number of strains inhibited/Number of strains tested: 1/17^m
Lactobacillus; [3]
  Number of strains inhibited/Number of strains tested: 1/17
Lactobacillus; 8AU (10 μl/spot of 800 AU/ml)
  Number of strains inhibited/Number of strains tested: 1/17^m
Lactobacillus; [4]
  Number of strains inhibited/Number of strains tested: 2/17
Leuconostoc; 1AU (10 μl/spot of 100 AU/ml)
  Number of strains inhibited/Number of strains tested: 5/9
Leuconostoc; 8AU (10 μl/spot of 800 AU/ml)
  Number of strains inhibited/Number of strains tested: 6/9^o
Leuconostoc; [4]
  Number of strains inhibited/Number of strains tested: 6/9
Clostridia spores; 1AU (10 μl/spot of 100 AU/ml)
  Number of strains inhibited/Number of strains tested: 0/7
Clostridia spores; 8AU (10 μl/spot of 800 AU/ml)
  Number of strains inhibited/Number of strains tested: 0/7
Streptococcus; 1AU (10 μl/spot of 100 AU/ml)
  Number of strains inhibited/Number of strains tested: 0/3
Streptococcus; 8AU (10 μl/spot of 800 AU/ml)
  Number of strains inhibited/Number of strains tested: 3/3^g
Streptococcus; [4]
  Number of strains inhibited/Number of strains tested: 3/3
G negative strains; 1AU (10 μl/spot of 100 AU/ml)
  Number of strains inhibited/Number of strains tested: 0/29
G negative strains; 8AU (10 μl/spot of 800 AU/ml)
  Number of strains inhibited/Number of strains tested: 0/29
[1]; 1AU (10 μl/spot of 100 AU/ml)
  Number of strains inhibited/Number of strains tested: 0/8
[1]; 8AU (10 μl/spot of 800 AU/ml)
  Number of strains inhibited/Number of strains tested: 1/8^d
[1]; [4]
  Number of strains inhibited/Number of strains tested: 1/8
Bacillus spores; 1AU (10 μl/spot of 100 AU/ml)
  Number of strains inhibited/Number of strains tested: 5/5^b
Bacillus spores; [3]
  Number of strains inhibited/Number of strains tested: 5/5
Bacillus spores; 8AU (10 μl/spot of 800 AU/ml)
  Number of strains inhibited/Number of strains tested: 5/5^b
Bacillus spores; [4]
  Number of strains inhibited/Number of strains tested: 5/5
Brochothrix; 1AU (10 μl/spot of 100 AU/ml)
  Number of strains inhibited/Number of strains tested: 0/14
Brochothrix; 8AU (10 μl/spot of 800 AU/ml)
  Number of strains inhibited/Number of strains tested: 0/14
Listeria; 1AU (10 μl/spot of 100 AU/ml)
  Number of strains inhibited/Number of strains tested: 36/42^h
Listeria; [3]
  Number of strains inhibited/Number of strains tested: 36/42
Listeria; 8AU (10 μl/spot of 800 AU/ml)
  Number of strains inhibited/Number of strains tested: 42/42
[2]; 1AU (10 μl/spot of 100 AU/ml)
  Number of strains inhibited/Number of strains tested: 3/5
[2]; 8AU (10 μl/spot of 800 AU/ml)
  Number of strains inhibited/Number of strains tested: 5/5

## Nisin
Carnobacteria; 1AU (10 μl/spot of 100 AU/ml)
  Number of strains inhibited/Number of strains tested: 19/19
Carnobacteria; 8AU (10 μl/spot of 800 AU/ml)
  Number of strains inhibited/Number of strains tested: 19/19
Lactococcus; 1AU (10 μl/spot of 100 AU/ml)
  Number of strains inhibited/Number of strains tested: 4/8
Lactococcus; 8AU (10 μl/spot of 800 AU/ml)
  Number of strains inhibited/Number of strains tested: 6/8^t and 6/8
Enterococcus; 1AU (10 μl/spot of 100 AU/ml)
  Number of strains inhibited/Number of strains tested: 12/14
Enterococcus; 8AU (10 μl/spot of 800 AU/ml)
  Number of strains inhibited/Number of strains tested: 14/14
Staphylococcus; 1AU (10 μl/spot of 100 AU/ml)
  Number of strains inhibited/Number of strains tested: 3/7
Staphylococcus; 8AU (10 μl/spot of 800 AU/ml)
  Number of strains inhibited/Number of strains tested: 7/7
Pediococcus; 1AU (10 μl/spot of 100 AU/ml)
  Number of strains inhibited/Number of strains tested: 3/3
Pediococcus; 8AU (10 μl/spot of 800 AU/ml)
  Number of strains inhibited/Number of strains tested: 3/3
Lactobacillus; 1AU (10 μl/spot of 100 AU/ml)
  Number of strains inhibited/Number of strains tested: 16/17
Lactobacillus; 8AU (10 μl/spot of 800 AU/ml)
  Number of strains inhibited/Number of strains tested: 17/17
Leuconostoc; 1AU (10 μl/spot of 100 AU/ml)
  Number of strains inhibited/Number of strains tested: 9/9
Leuconostoc; 8AU (10 μl/spot of 800 AU/ml)
  Number of strains inhibited/Number of strains tested: 9/9
Clostridia spores; 1AU (10 μl/spot of 100 AU/ml)
  Number of strains inhibited/Number of strains tested: 5/7
Clostridia spores; 8AU (10 μl/spot of 800 AU/ml)
  Number of strains inhibited/Number of strains tested: 7/7
Streptococcus; 1AU (10 μl/spot of 100 AU/ml)
  Number of strains inhibited/Number of strains tested: 1/3
Streptococcus; 8AU (10 μl/spot of 800 AU/ml)
  Number of strains inhibited/Number of strains tested: 2/3
G negative strains; 1AU (10 μl/spot of 100 AU/ml)
  Number of strains inhibited/Number of strains tested: 0/29
G negative strains; 8AU (10 μl/spot of 800 AU/ml)
  Number of strains inhibited/Number of strains tested: 0/29
[1]; 1AU (10 μl/spot of 100 AU/ml)
  Number of strains inhibited/Number of strains tested: 7/8
[1]; 8AU (10 μl/spot of 800 AU/ml)
  Number of strains inhibited/Number of strains tested: 8/8
Bacillus spores; 1AU (10 μl/spot of 100 AU/ml)
  Number of strains inhibited/Number of strains tested: 5/5
Bacillus spores; 8AU (10 μl/spot of 800 AU/ml)
  Number of strains inhibited/Number of strains tested: 5/5
Brochothrix; 1AU (10 μl/spot of 100 AU/ml)
  Number of strains inhibited/Number of strains tested: 14/14
Brochothrix; 8AU (10 μl/spot of 800 AU/ml)
  Number of strains inhibited/Number of strains tested: 14/14
Listeria; 1AU (10 μl/spot of 100 AU/ml)
  Number of strains inhibited/Number of strains tested: 42/42
Listeria; 8AU (10 μl/spot of 800 AU/ml)
  Number of strains inhibited/Number of strains tested: 42/42
[2]; 1AU (10 μl/spot of 100 AU/ml)
  Number of strains inhibited/Number of strains tested: 5/5
[2]; 8AU (10 μl/spot of 800 AU/ml)
  Number of strains inhibited/Number of strains tested: 5/5

## Pedi PA-1: pediocin PA-1, a bacteriocin from Pediococcus acidilactici PAC1.0 (KYYGNGVTCGKHSCSVDWGKATTCIINNGAMAWATGGHQGNHKC; ends and bridges not checked; cysteine pairing not given here; UniProt P29430 19-62, looked up)
Carnobacteria; 1AU (10 μl/spot of 100 AU/ml)
  Number of strains inhibited/Number of strains tested: 7/19
Carnobacteria; 8AU (10 μl/spot of 800 AU/ml)
  Number of strains inhibited/Number of strains tested: 7/19
Lactococcus; 1AU (10 μl/spot of 100 AU/ml)
  Number of strains inhibited/Number of strains tested: 0/8
Lactococcus; 8AU (10 μl/spot of 800 AU/ml)
  Number of strains inhibited/Number of strains tested: 0/8
Enterococcus; 1AU (10 μl/spot of 100 AU/ml)
  Number of strains inhibited/Number of strains tested: 7/14
Enterococcus; 8AU (10 μl/spot of 800 AU/ml)
  Number of strains inhibited/Number of strains tested: 11/14
Staphylococcus; 1AU (10 μl/spot of 100 AU/ml)
  Number of strains inhibited/Number of strains tested: 0/7
Staphylococcus; 8AU (10 μl/spot of 800 AU/ml)
  Number of strains inhibited/Number of strains tested: 1/7
Pediococcus; 1AU (10 μl/spot of 100 AU/ml)
  Number of strains inhibited/Number of strains tested: 0/3
Pediococcus; 8AU (10 μl/spot of 800 AU/ml)
  Number of strains inhibited/Number of strains tested: 2/3
Lactobacillus; 1AU (10 μl/spot of 100 AU/ml)
  Number of strains inhibited/Number of strains tested: 1/17
Lactobacillus; 8AU (10 μl/spot of 800 AU/ml)
  Number of strains inhibited/Number of strains tested: 2/17
Leuconostoc; 1AU (10 μl/spot of 100 AU/ml)
  Number of strains inhibited/Number of strains tested: 4/9
Leuconostoc; 8AU (10 μl/spot of 800 AU/ml)
  Number of strains inhibited/Number of strains tested: 5/9
Clostridia spores; 1AU (10 μl/spot of 100 AU/ml)
  Number of strains inhibited/Number of strains tested: 0/7
Clostridia spores; 8AU (10 μl/spot of 800 AU/ml)
  Number of strains inhibited/Number of strains tested: 0/7
Streptococcus; 1AU (10 μl/spot of 100 AU/ml)
  Number of strains inhibited/Number of strains tested: 0/3
Streptococcus; 8AU (10 μl/spot of 800 AU/ml)
  Number of strains inhibited/Number of strains tested: 0/3
G negative strains; 1AU (10 μl/spot of 100 AU/ml)
  Number of strains inhibited/Number of strains tested: 0/29
G negative strains; 8AU (10 μl/spot of 800 AU/ml)
  Number of strains inhibited/Number of strains tested: 0/29
[1]; 1AU (10 μl/spot of 100 AU/ml)
  Number of strains inhibited/Number of strains tested: 0/8
[1]; 8AU (10 μl/spot of 800 AU/ml)
  Number of strains inhibited/Number of strains tested: 0/8
Bacillus spores; 1AU (10 μl/spot of 100 AU/ml)
  Number of strains inhibited/Number of strains tested: 0/5
Bacillus spores; 8AU (10 μl/spot of 800 AU/ml)
  Number of strains inhibited/Number of strains tested: 0/5
Brochothrix; 1AU (10 μl/spot of 100 AU/ml)
  Number of strains inhibited/Number of strains tested: 0/14
Brochothrix; 8AU (10 μl/spot of 800 AU/ml)
  Number of strains inhibited/Number of strains tested: 0/14
Listeria; 1AU (10 μl/spot of 100 AU/ml)
  Number of strains inhibited/Number of strains tested: 39/42
Listeria; 8AU (10 μl/spot of 800 AU/ml)
  Number of strains inhibited/Number of strains tested: 40/42
[2]; 1AU (10 μl/spot of 100 AU/ml)
  Number of strains inhibited/Number of strains tested: 2/5
[2]; 8AU (10 μl/spot of 800 AU/ml)
  Number of strains inhibited/Number of strains tested: 2/5
